In patent US20090291857A1, “METHODS TO IDENTIFY INHIBITORS OF THE UNFOLDED PROTEIN RESPONSE” (THE BOARD OF TRUSTEES OF THE LELAND STANFORD JUNIOR …, priority 2006, published 2009):

Test system: caspase-3
Experiment: Cleavage of caspase-3 in HT1080 cells
Type: cell-based, human
Conditions: 2.5 μM
Description: A. Effect of irestatin 9389 on PERK and ATF6 pathways. HT1080 cells were treated with vehicle alone (lanes 1-4) or 2.5 μM irestatin 9389 (lanes 5-8) and cultured under aerobic conditions for 18 hours (N) or shifted to hypoxia for the indicated times. Protein lysates were analyzed by Western blot analysis using antisera specific for ATF6 (top), CHOP/GADD153 (middle) or actin (bottom). Arrow indicates the cleaved, transcriptionally active form of ATF6. B. Cleavage of caspase-3 in irestatin-treated cells under hypoxia. HT1080 cells were cultured in normoxia (N) or under hypoxia for 36 hours (H 36) in absence or presence of irestatin 9389 (2.5 μM). Arrows indicate proteolytically cleaved caspase-3. C. Colony formation assay. HT1080 cells were treated as in B under normoxia (N) or hypoxia for 48 hours (H 48). Cells were harvested, counted, and allowed to grow under normal culture conditions for 11-12 days. Colonies were visualized with crystal violet staining. D. Quantification of clonogenic survival assay. Values represent the mean+/−SEM from at least 4 independent experiments. E. TUNEL staining of cells treated as in C. F. Quantification of TUNEL-positive cells. Values represent the mean+/−SEM from at least 3 experiments. […] Cells were harvested at the indicated times and counted by hemocytometer. Values represent the mean calculated from triplicate experiments +/−SEM. […]

Cc1csc(NC(=O)CSc2nc3c(c(C(F)(F)F)c2C#N)CCC3)n1 [Compound 9389]
cleavage of caspase-3 under hypoxia (36 hours of hypoxia): stimulated cleavage of caspase-3
caspase-3 processing under normal oxygen (normal oxygen conditions): no effect on caspase-3 processing
